Tests used:
[1] = system: Brain; assay: Biodistribution in mouse S180 cells xenografted Kunming mouse brain at 370 kBq/0.1 mL, iv after 15 mins by gamma counting; type: ADME, organism-based, CCRF S-180; conditions: in vivo, 0.25 h
[2] = system: Lung; assay: Biodistribution in mouse S180 cells xenografted Kunming mouse lung at 370 kBq/0.1 mL, iv after 30 mins by gamma counting; type: ADME, organism-based, CCRF S-180; conditions: in vivo, 0.5 h
[3] = system: Mus musculus; assay: Biodistribution in mouse S180 cells xenografted Kunming mouse excretory organ at 3.7 MBq, iv after 30 mins by PET imaging analysis; type: ADME, organism-based, CCRF S-180; conditions: in vivo, 0.5 h
[4] = system: Blood; assay: Biodistribution in mouse S180 cells xenografted Kunming mouse blood at 370 kBq/0.1 mL, iv after 15 mins by gamma counting; type: ADME, organism-based, CCRF S-180; conditions: in vivo, 0.25 h
[5] = system: Blood; assay: Biodistribution in mouse S180 cells xenografted Kunming mouse blood at 370 kBq/0.1 mL, iv after 60 mins by gamma counting; type: ADME, organism-based, CCRF S-180; conditions: in vivo, 1 h
[6] = system: Muscle tissue; assay: Biodistribution in mouse S180 cells xenografted Kunming mouse muscle at 370 kBq/0.1 mL, iv after 5 mins by gamma counting; type: ADME, organism-based, CCRF S-180; conditions: in vivo
[7] = system: Heart; assay: Biodistribution in mouse S180 cells xenografted Kunming mouse heart at 370 kBq/0.1 mL, iv after 30 mins by gamma counting; type: ADME, organism-based, CCRF S-180; conditions: in vivo, 0.5 h
[8] = system: Heart; assay: Biodistribution in mouse S180 cells xenografted Kunming mouse heart at 370 kBq/0.1 mL, iv after 15 mins by gamma counting; type: ADME, organism-based, CCRF S-180; conditions: in vivo, 0.25 h
[9] = system: Spleen; assay: Biodistribution in mouse S180 cells xenografted Kunming mouse spleen at 370 kBq/0.1 mL, iv after 30 mins by gamma counting; type: ADME, organism-based, CCRF S-180; conditions: in vivo, 0.5 h
[10] = system: CCRF S-180; assay: Cellular uptake in mouse S180 cells after 30 mins; type: ADME, cell-based; conditions: ccrf s-180, 0.5 h
[11] = system: Spleen; assay: Biodistribution in mouse S180 cells xenografted Kunming mouse spleen at 370 kBq/0.1 mL, iv after 15 mins by gamma counting; type: ADME, organism-based, CCRF S-180; conditions: in vivo, 0.25 h
[12] = system: Muscle tissue; assay: Biodistribution in mouse S180 cells xenografted Kunming mouse muscle at 370 kBq/0.1 mL, iv after 120 mins by gamma counting; type: ADME, organism-based, CCRF S-180; conditions: in vivo, 2 h
[13] = system: Nucleic Acid; assay: Ratio of drug level in tumor to brain in mouse S180 cells xenografted Kunming mouse at 370 kBq/0.1 mL, iv after 5 mins by gamma counting; type: ADME, organism-based, CCRF S-180; conditions: in vivo
[14] = system: Lung; assay: Biodistribution in mouse S180 cells xenografted Kunming mouse lung at 370 kBq/0.1 mL, iv after 60 mins by gamma counting; type: ADME, organism-based, CCRF S-180; conditions: in vivo, 1 h
[15] = system: Brain; assay: Biodistribution in mouse S180 cells xenografted Kunming mouse brain at 370 kBq/0.1 mL, iv after 60 mins by gamma counting; type: ADME, organism-based, CCRF S-180; conditions: in vivo, 1 h
[16] = system: Liver; assay: Biodistribution in mouse S180 cells xenografted Kunming mouse liver at 370 kBq/0.1 mL, iv after 15 mins by gamma counting; type: ADME, organism-based, CCRF S-180; conditions: in vivo, 0.25 h
[17] = system: Liver; assay: Biodistribution in mouse S180 cells xenografted Kunming mouse liver at 370 kBq/0.1 mL, iv after 5 mins by gamma counting; type: ADME, organism-based, CCRF S-180; conditions: in vivo
[18] = system: Mus musculus; assay: Biodistribution in mouse S180 cells xenografted Kunming mouse left forelimb of tumor at 3.7 MBq, iv after 30 mins by PET imaging analysis; type: ADME, organism-based, Neoplasm, CCRF S-180; conditions: in vivo, 0.5 h
[19] = system: CCRF S-180; assay: Cellular uptake in mouse S180 cells after 60 mins; type: ADME, cell-based; conditions: ccrf s-180, 1 h
[20] = system: Lung; assay: Biodistribution in mouse S180 cells xenografted Kunming mouse lung at 370 kBq/0.1 mL, iv after 5 mins by gamma counting; type: ADME, organism-based, CCRF S-180; conditions: in vivo
[21] = system: Mus musculus; assay: Biodistribution in mouse S180 cells xenografted Kunming mouse tumor at 370 kBq/0.1 mL, iv after 60 mins by gamma counting; type: ADME, organism-based, Neoplasm, CCRF S-180; conditions: in vivo, 1 h
[22] = system: Heart; assay: Biodistribution in mouse S180 cells xenografted Kunming mouse heart at 370 kBq/0.1 mL, iv after 5 mins by gamma counting; type: ADME, organism-based, CCRF S-180; conditions: in vivo
[23] = system: Mus musculus; assay: Biodistribution in mouse S180 cells xenografted Kunming mouse right forelimb of tumor at 3.7 MBq, iv after 30 mins by PET imaging analysis; type: ADME, organism-based, Neoplasm, CCRF S-180; conditions: in vivo, 0.5 h
[24] = system: Liver; assay: Biodistribution in mouse S180 cells xenografted Kunming mouse liver at 370 kBq/0.1 mL, iv after 60 mins by gamma counting; type: ADME, organism-based, CCRF S-180; conditions: in vivo, 1 h
[25] = system: Spleen; assay: Biodistribution in mouse S180 cells xenografted Kunming mouse spleen at 370 kBq/0.1 mL, iv after 120 mins by gamma counting; type: ADME, organism-based, CCRF S-180; conditions: in vivo, 2 h
[26] = system: Liver; assay: Biodistribution in mouse S180 cells xenografted Kunming mouse liver at 370 kBq/0.1 mL, iv after 30 mins by gamma counting; type: ADME, organism-based, CCRF S-180; conditions: in vivo, 0.5 h

Drug uptake [1] [% ID/g]	Drug uptake [2] [% ID/g]	Drug uptake [4] [% ID/g]	Drug uptake [5] [% ID/g]	Drug uptake [6] [% ID/g]	Drug uptake [7] [% ID/g]	Drug uptake [8] [% ID/g]	Drug uptake [9] [% ID/g]	Drug uptake [11] [% ID/g]	Drug uptake [12] [% ID/g]	Ratio [13]	Drug uptake [14] [% ID/g]	Drug uptake [15] [% ID/g]	Drug uptake [16] [% ID/g]	Drug uptake [17] [% ID/g]	Drug uptake [19] [%]	Drug uptake [20] [% ID/g]	Drug uptake [21] [% ID/g]	Drug uptake [22] [% ID/g]	Drug uptake [24] [% ID/g]	Compound	further results
2.7	3.77	4.65	3.63	3.99	4.06	3.57	3.43	3.42	2.64	0.59	2.78	1.93	4.02	6.99	9	6.61	2.95	5.53	2.45	Cc1cc(NCC[18F])n2ncc(C#N)c2n1	Drug uptake [3]: Active; Drug uptake [10]: Active; Drug uptake [18]: Active; Drug uptake [23]: Not Active; Drug uptake [25]: 2.15 % ID/g; Drug uptake [26]: 3.17 % ID/g
0.16	1.19	2.5	0.45	3.82	1.16	2.78	0.99	1.96	0.28	5.87	0.56	0.08	10.12	17.9	9	5.6	0.74	5.77	4.07	Cc1cc(NCCNC(=O)c2ccc([N+](=O)[O-])cc2[18F])n2ncc(C#N)c2n1	Drug uptake [25]: 0.14 % ID/g; Drug uptake [26]: 7.3 % ID/g

Reference: ChEMBL document CHEMBL1806489, “Synthesis and biological evaluation of novel F-18 labeled pyrazolo[1,5-a]pyrimidine derivatives: potential PET imaging agents for tumor detection” (Bioorg Med Chem Lett, 2011)
